# Laboratory results as given in PubChem BioAssay (NCI).
#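 Dose response: 5 concentrations. Exposure: 48 h. Format: 96-well plates. Endpoint: linear interpolation; highest concentration if not reached. TGI: total growth inhibition.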
# Legend:
# Assay in all cases: NCI tumour cell line growth inhibition, 48 h
# SK-MEL-5 melanoma = tested on: SK-MEL-5 melanoma
# M14 melanoma = tested on: M14 melanoma
# MALME-3M melanoma = tested on: MALME-3M melanoma
# OVCAR-3 ovarian = tested on: OVCAR-3 ovarian
# LOX IMVI melanoma = tested on: LOX IMVI melanoma
# NCI-H23 lung = tested on: NCI-H23 lung
# K-562 leukemia = tested on: K-562 leukemia
# OVCAR-8 ovarian = tested on: OVCAR-8 ovarian
# SF-295 CNS = tested on: SF-295 CNS
# T-47D breast = tested on: T-47D breast
# HCT-15 colon = tested on: HCT-15 colon
# COLO 205 colon = tested on: COLO 205 colon
# MDA-MB-231 breast = tested on: MDA-MB-231 breast
# SW-620 colon = tested on: SW-620 colon
# KM12 colon = tested on: KM12 colon
# A549 NSCLC = tested on: A549 NSCLC
# PC-3 prostate = tested on: PC-3 prostate
# EKVX NSCLC = tested on: EKVX NSCLC
# RXF 393 renal = tested on: RXF 393 renal
# SK-OV-3 ovarian = tested on: SK-OV-3 ovarian
# DU-145 prostate = tested on: DU-145 prostate
# HCT-116 colon = tested on: HCT-116 colon
# HL-60(TB) leukemia = tested on: HL-60(TB) leukemia
# NCI-H460 lung = tested on: NCI-H460 lung
# SF-539 CNS = tested on: SF-539 CNS
# MDA-N = tested on: MDA-N
# SNB-75 CNS = tested on: SNB-75 CNS
# A498 renal = tested on: A498 renal
# UACC-257 melanoma = tested on: UACC-257 melanoma
# TK-10 renal = tested on: TK-10 renal
# HCC-2998 colon = tested on: HCC-2998 colon
# IGROV1 ovarian = tested on: IGROV1 ovarian
# MOLT-4 leukemia = tested on: MOLT-4 leukemia
# SF-268 CNS = tested on: SF-268 CNS
# SN12C renal = tested on: SN12C renal
# U251 CNS = tested on: U251 CNS
# HOP-62 NSCLC = tested on: HOP-62 NSCLC
# CCRF-CEM leukemia = tested on: CCRF-CEM leukemia
# SNB-19 CNS = tested on: SNB-19 CNS
# RPMI-8226 leukemia = tested on: RPMI-8226 leukemia
# MDA-MB-435 = tested on: MDA-MB-435
# HT29 colon = tested on: HT29 colon
# HS 578T breast = tested on: HS 578T breast
# SK-MEL-28 melanoma = tested on: SK-MEL-28 melanoma
# CAKI-1 renal = tested on: CAKI-1 renal
# OVCAR-5 ovarian = tested on: OVCAR-5 ovarian
# NCI/ADR-RES ovarian = tested on: NCI/ADR-RES ovarian
# UACC-62 melanoma = tested on: UACC-62 melanoma
# 786-0 renal = tested on: 786-0 renal
# OVCAR-4 ovarian = tested on: OVCAR-4 ovarian
# NCI-H226 lung = tested on: NCI-H226 lung
# ACHN renal = tested on: ACHN renal
# HOP-92 NSCLC = tested on: HOP-92 NSCLC
# MCF7 breast = tested on: MCF7 breast
# NCI-H522 lung = tested on: NCI-H522 lung
# UO-31 renal = tested on: UO-31 renal
# SK-MEL-2 melanoma = tested on: SK-MEL-2 melanoma
# SR leukemia = tested on: SR leukemia
smiles,measurement,setting,value
CCCCCCCCCCCCCCCCCC(=O)OCC(COC1OC(COP(=O)(O)O)C(O)C(O)C1O)OC(=O)CCCCCCCCCCCCCCCCC (configuration not stated),TGI,SK-MEL-5 melanoma,16.6 µM
same,TGI,M14 melanoma,17.3 µM
same,TGI,MALME-3M melanoma,14.2 µM
same,TGI,OVCAR-3 ovarian,16 µM
same,TGI,LOX IMVI melanoma,17.2 µM
same,TGI,NCI-H23 lung,15 µM
same,TGI,K-562 leukemia,18.7 µM
same,TGI,OVCAR-8 ovarian,17.8 µM
same,TGI,SF-295 CNS,10.6 µM
same,TGI,T-47D breast,28.9 µM
same,TGI,HCT-15 colon,14.4 µM
same,TGI,COLO 205 colon,18.5 µM
same,TGI,MDA-MB-231 breast,9.24 µM
same,TGI,SW-620 colon,17.9 µM
same,TGI,KM12 colon,13 µM
same,TGI,A549 NSCLC,16 µM
same,TGI,PC-3 prostate,14.3 µM
same,TGI,EKVX NSCLC,16.4 µM
same,TGI,RXF 393 renal,16.8 µM
same,TGI,SK-OV-3 ovarian,15.4 µM
same,TGI,DU-145 prostate,16.8 µM
same,TGI,HCT-116 colon,16.2 µM
same,TGI,HL-60(TB) leukemia,21.1 µM
same,TGI,NCI-H460 lung,23.4 µM
same,TGI,SF-539 CNS,18.1 µM
same,TGI,MDA-N,20.1 µM
same,TGI,SNB-75 CNS,11.5 µM
same,TGI,A498 renal,12.5 µM
same,TGI,UACC-257 melanoma,16.6 µM
same,TGI,TK-10 renal,17.6 µM
same,TGI,HCC-2998 colon,15.7 µM
same,TGI,IGROV1 ovarian,10.5 µM
same,TGI,MOLT-4 leukemia,17.3 µM
same,TGI,SF-268 CNS,17 µM
same,TGI,SN12C renal,14.1 µM
same,TGI,U251 CNS,14.7 µM
same,TGI,HOP-62 NSCLC,15.1 µM
same,TGI,CCRF-CEM leukemia,14.4 µM
same,TGI,SNB-19 CNS,14.8 µM
same,TGI,RPMI-8226 leukemia,23.1 µM
same,TGI,MDA-MB-435,17.1 µM
same,TGI,HT29 colon,11.7 µM
same,TGI,HS 578T breast,17.4 µM
same,TGI,SK-MEL-28 melanoma,18 µM
same,TGI,CAKI-1 renal,16.9 µM
same,TGI,OVCAR-5 ovarian,11.4 µM
same,TGI,NCI/ADR-RES ovarian,18.2 µM
same,TGI,UACC-62 melanoma,16.3 µM
same,TGI,786-0 renal,14.9 µM
same,TGI,OVCAR-4 ovarian,14.5 µM
same,TGI,NCI-H226 lung,13.3 µM
same,TGI,ACHN renal,12.7 µM
same,TGI,HOP-92 NSCLC,10.5 µM
same,TGI,MCF7 breast,17.1 µM
COc1cc(OC)c(OC)cc1/C=N/N=C(\N)NO,TGI,SK-MEL-5 melanoma,> 100 µM
same,TGI,M14 melanoma,> 100 µM
same,TGI,MALME-3M melanoma,> 100 µM
same,TGI,OVCAR-3 ovarian,> 100 µM
same,TGI,LOX IMVI melanoma,> 100 µM
same,TGI,NCI-H23 lung,> 100 µM
same,TGI,K-562 leukemia,> 100 µM
same,TGI,OVCAR-8 ovarian,> 100 µM
same,TGI,SF-295 CNS,> 100 µM
same,TGI,T-47D breast,> 100 µM
same,TGI,HCT-15 colon,> 100 µM
same,TGI,COLO 205 colon,> 100 µM
same,TGI,MDA-MB-231 breast,> 100 µM
same,TGI,SW-620 colon,> 100 µM
same,TGI,KM12 colon,> 100 µM
same,TGI,A549 NSCLC,> 100 µM
same,TGI,PC-3 prostate,> 100 µM
same,TGI,EKVX NSCLC,> 100 µM
same,TGI,RXF 393 renal,> 100 µM
same,TGI,SK-OV-3 ovarian,> 100 µM
same,TGI,DU-145 prostate,> 100 µM
same,TGI,HCT-116 colon,> 100 µM
same,TGI,NCI-H522 lung,> 100 µM
same,TGI,HL-60(TB) leukemia,> 100 µM
same,TGI,NCI-H460 lung,> 100 µM
same,TGI,SF-539 CNS,> 100 µM
same,TGI,MDA-N,> 100 µM
same,TGI,SNB-75 CNS,93.5 µM
same,TGI,A498 renal,> 100 µM
same,TGI,UACC-257 melanoma,> 100 µM
same,TGI,TK-10 renal,> 100 µM
same,TGI,HCC-2998 colon,> 100 µM
same,TGI,IGROV1 ovarian,> 100 µM
same,TGI,UO-31 renal,> 100 µM
same,TGI,MOLT-4 leukemia,> 100 µM
same,TGI,SF-268 CNS,> 100 µM
same,TGI,SN12C renal,> 100 µM
same,TGI,U251 CNS,> 100 µM
same,TGI,HOP-62 NSCLC,> 100 µM
same,TGI,CCRF-CEM leukemia,> 100 µM
same,TGI,SNB-19 CNS,> 100 µM
same,TGI,RPMI-8226 leukemia,> 100 µM
same,TGI,MDA-MB-435,> 100 µM
same,TGI,HT29 colon,> 100 µM
same,TGI,HS 578T breast,> 100 µM
same,TGI,SK-MEL-28 melanoma,> 100 µM
same,TGI,CAKI-1 renal,> 100 µM
same,TGI,OVCAR-5 ovarian,> 100 µM
same,TGI,NCI/ADR-RES ovarian,> 100 µM
same,TGI,UACC-62 melanoma,> 100 µM
same,TGI,786-0 renal,> 100 µM
same,TGI,OVCAR-4 ovarian,> 100 µM
same,TGI,SK-MEL-2 melanoma,> 100 µM
same,TGI,NCI-H226 lung,> 100 µM
same,TGI,ACHN renal,> 100 µM
same,TGI,HOP-92 NSCLC,> 100 µM
same,TGI,MCF7 breast,> 100 µM
same,TGI,SR leukemia,> 100 µM
